Source: patent US20230183291A1, “ANTI-INFECTIVE BICYCLIC PEPTIDE LIGANDS” (priority 2020, published 2023)

How the values were obtained:
[1] = molecular target: T1, Biotinylated Human ACE2, His, Avitag protein (Homo sapiens, UniProt Q9BYF1); assay: Surface plasmon resonance (SPR) multiple cycle kinetics (MCK) direct binding; conditions: 25° C., 6.25 nM to 100 nM analyte, Langmuir (1:1) model
T1 construct: His; purchased ACROBiosystems AC2-H82E6
Description: 3. Affinity Determination by Surface Plasmon Resonance (SPR) Via Multiple Cycle Kinetics (MCK)
Binding of bicyclic peptides of the invention to Biotinylated Human ACE2, His, Avitag™ protein (ACROBiosystems, AC2-H82E6) was assessed by a MCK analysis. Experiments were performed at 25° C. on a Biacore T200 (Cytiva) running Biacore T200 Control software V2.0.1 and Evaluation software V3.0 (Cytiva). HBS-EP+(Cytiva) was used as running buffer as well as for ligand and analyte dilutions. Biotin CAPture reagent was loaded onto a Series S Sensor CAP Chip (Cytiva) followed by loading of biotinylated ACE2 at a flow rate of 2 μl/min. The surface was then allowed to stabilise.
MCK data was obtained using bicyclic peptides of the invention as analytes injected at a flow rate of 30 μl/min to minimise any potential mass transfer effects. A five point, two-fold dilution range from 6.25 nM to 100 nM of analyte was prepared in running buffer. For each concentration, the association phases were monitored for 250 seconds and the dissociation phase was measured for 450 seconds. Regeneration of the sensor chip surface was conducted between cycles using the CAP Chip standard regeneration buffer (Cytiva). Multiple repeats of a blank and of Bicycle were programmed into the kinetic run in order to check the stability of both the surface and analyte over the kinetic cycles. […]

[2] = molecular target: T1, Biotinylated Human ACE2, His, Avitag protein; assay: Surface plasmon resonance (SPR) single cycle kinetics (SCK) direct binding; conditions: 25° C., Langmuir (1:1) model
Description: 2. Affinity Determination by Surface Plasmon Resonance (SPR) Via Single Cycle Kinetics (SCK)
Binding of bicyclic peptides of the invention to Biotinylated Human ACE2, His, Avitag™ protein (ACROBiosystems, AC2-H82E6) was assessed by a SCK analysis. Experiments were performed at 25° C. on a Biacore T200 (Cytiva) running Biacore T200 Control software V2.0.1 and Evaluation software V3.0 (Cytiva). HBS-EP+ (Cytiva) was used as running buffer as well as for ligand and analyte dilutions. Biotin CAPture reagent was loaded onto a Series S Sensor CAP Chip (Cytiva) followed by loading of the ACE2 protein at a flow rate of 2 μl/min. The surface was then allowed to stabilise.
SCK data was obtained using bicyclic peptides of the invention as analytes injected at a flow rate of 30 μl/min to minimise any potential mass transfer effects. A minimum four point 2-fold dilution of analyte based on the affinity of the bicyclic peptides of the invention in running buffer was used without regeneration between each concentration. The association phases were monitored for 100 seconds for each of the four injections of increasing concentrations of analyte and a single dissociation phase was measured for 400 seconds following the last injection of analyte. Regeneration of the sensor chip surface was conducted using the CAP Chip standard regeneration buffer (Cytiva).
The signal from the reference channel Fc1 (no ACE2 captured) was subtracted from that of Fc2, Fc3 and Fc4 to correct for bulk effect and differences in non-specific binding to a reference surface. The signal from each blank run (Fc2-ACE2 captured but no antigen) was subtracted to correct for differences in surface stability. The double referenced sensorgrams were fitted with the Langmuir (1:1) binding model (Equation 1a below) where the closeness of fit of the data to the model is evaluated using the Chi square value which describes the deviation between the experimental and fitted (observed and expected) curves (Equation 1b below).

T1 sequence (Q9BYF1 18-740 limits assumed): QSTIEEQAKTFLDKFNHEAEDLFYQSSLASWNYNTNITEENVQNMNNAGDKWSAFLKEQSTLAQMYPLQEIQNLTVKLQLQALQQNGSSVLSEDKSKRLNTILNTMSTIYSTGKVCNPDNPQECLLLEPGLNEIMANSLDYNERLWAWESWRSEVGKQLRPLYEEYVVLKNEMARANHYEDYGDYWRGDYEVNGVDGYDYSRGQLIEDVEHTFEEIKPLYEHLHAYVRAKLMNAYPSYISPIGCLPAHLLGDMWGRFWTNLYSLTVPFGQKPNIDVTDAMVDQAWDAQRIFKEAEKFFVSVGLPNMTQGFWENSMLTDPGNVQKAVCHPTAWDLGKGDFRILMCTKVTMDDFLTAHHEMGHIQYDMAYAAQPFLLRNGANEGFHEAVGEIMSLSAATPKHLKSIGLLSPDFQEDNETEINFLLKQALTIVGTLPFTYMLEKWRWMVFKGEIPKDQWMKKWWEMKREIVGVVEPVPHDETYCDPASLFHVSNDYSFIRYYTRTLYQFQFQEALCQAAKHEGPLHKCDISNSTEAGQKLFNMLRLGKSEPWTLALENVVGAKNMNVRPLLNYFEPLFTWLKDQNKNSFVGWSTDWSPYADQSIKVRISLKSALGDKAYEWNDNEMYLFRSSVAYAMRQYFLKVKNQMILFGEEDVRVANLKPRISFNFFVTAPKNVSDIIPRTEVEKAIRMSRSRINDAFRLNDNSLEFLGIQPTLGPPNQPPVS

Substance | Geometric Mean KD (nM) [1] | Geometric Mean KD (nM) [2]
CiNAVLCiiSWA[HArg][HyP]NSFCiii cyclised with TATA [BCY19024, Ac-(SEQ ID NO: 56)] | No sig. binding at top conc. tested | –
CiNAVLCiiSWA[HArg][dA]NSFCiii cyclised with TATA [BCY18256, Ac-(SEQ ID NO: 45)] | – | No sig. binding at top conc. tested
CiNDVLCiiSWA[HArg]ANSFCiii cyclised with TATA [BCY18659, Ac-(SEQ ID NO: 54)] | – | No sig. binding at top conc. tested
CiNEVLCiiSWA[HArg]ANSFCiii cyclised with TATA [BCY18783, Ac-(SEQ ID NO: 55)] | – | No sig. binding at top conc. tested
